Test results: patent US20060135624A1, “Natural compound useful for treating diabetes, its preparation and use” (JINGYU LIANG ET AL, priority 2002, published 2006)

Experiments:
[1] = tested on: normal mice; assay: Test of acute toxicity by oral administration; type: in vivo; settings: 18.95 g/kg and 9.47 g/kg drenched one time; executed after 7 days
From the text: 1) Experimental Method • 20 Normal mice (half male and half female) were divided into two groups (each group had 10 mice), and drenched with 18.95 g/kg and 9.47 g/kg one time, wherein the higher dose reached the maximum concentration and the maximum administration volume. The animals' responses were observed. The mice were executed after 7 days, and their organs were macroscopically observed.

[2] = tested on: rat hyperglycemia induced by alloxan; assay: Effect of Sequoyitol on rat hyperglycemia induced by alloxan; type: in vivo, SD rats
Experimental: 1. Experimental Methods^[5,6] • 5 Rats were randomly selected as normal group, the other 55 rats were fasted for 14-16 hours, administrated with 30 mg/kg of Pentobarbital by intra-abdominal injection. After paralyzed, the rats were administrated with 48 mg/kg of alloxan by vena femoralis injection, modeled according to methods of documents, and divided into 5 groups according to blood-sugar level, wherein each group had 11 rats, and 4 groups were orally administrated with 25, 50 and 100 mg/kg of Sequoyitol and 75 mg/kg of phenformine according to 1 ml/100 g of body weight, respectively, and the normal group and modeling group were administrated with the same volum of distilled water. These administrations were conducted for continuous 18 days. The fasting blood-sugar levels of the rats were separately measured at 6th and 12th day after the administration. At the 18th day, blood was collected from arteria femoralis, and the blood sugar level, insulin level, cholesterol content, triglyceride content, malonaldehyde content, and hepatocuprein activity of serum were measured; liver tissue was homogenated, and the malonaldehyde content, and hepatocuprein activity of liver tissue were measured; and pancreatic gland was soaked in 10% formalin, embedded with paraffin, sliced, and dyed with HE.

[3] = tested on: mouse hyperglycemia induced by alloxan; assay: Effects of Sequoyitol on mouse hyperglycemia induced by alloxan; type: in vivo, Kunming mice
Experimental: 1. Experimental Methods^[1,2] • Among 60 mice, 10 mice were randomly selected as normal group, and the residual mice were administrated with 65 mg/kg alloxan by caudal vein injection, modeled according to the method of documents, and divided into 5 groups according to blood-sugar values, wherein 4 groups were perorally administrated with 25, 50 and 100 mg/kg of Sequoyitol and 75 mg/kg of phenformine according to 0.1 ml/10 g of body weight, respectively, and the normal group and modeling group were administrated with the same volum of distilled water, separately. These administrations were conducted for continuous 7 days. The blood-sugar levels were detected by glucose oxidase method. The pancreatic glands of the mice were soaked in 10% formalin, embedded with paraffin, sliced, and dyed with HE dye.

[4] = tested on: normal mice; assay: General pharmacology in mice; settings: mouse, in vivo
From the text: • 1. Guidelines for Studying New Drugs (Pharmacy, Pharmacology, Toxicology), Bureau of Drug Administration, the Ministry of Health of the People's Republic of China • 2. Chen Q I, Methodology for Studying Pharmacology of Chinese Medicine, People' Medical Publishing House, 1st Edition, 1993, 118-119 III. Studies on General Pharmacology • The effects of Sequoyitol on general physical signs and spontaneous movement of normal mice, on Pentobarbital hours of sleep of mice, and on respiratory movement, blood pressure, cardiac rhythm and electrocardiogram of rats were observed.

[5] = tested on: mouse hyperglycemia induced by alloxan; assay: Time-effect relation of Sequoyitol to mouse hyperglycemia induced by alloxan; type: in vivo, Kunming mice; settings: for blood-sugar level decreased compared to the control group: Sequoyitol 50 mg/kg p.o. 7 days
Experimental: 1. Experimental Methods^[1,2] • Alloxan was administrated to each of 30 mice by caudal vein injection with a dose of 65 mg/kg, and the mice were modeled according to the method of documents, divided into 3 groups according to blood-sugar values, […] according to […] of body weight, and the modeling group was administrated with the same volum of distilled water, separately. These administrations were conducted for continuous 7 days, and the mice were fasted for 2 hours before the last administration, and their blood-sugar levels were detected by glucose oxidase method at 1 2, 3 and 5 hours after the last administration.

[6] = 50 and 100 mg/kg Sequoyitol groups, oral 18 days
[7] = Sequoyitol 50 mg/kg oral 18 days
[8] = Sequoyitol 100 mg/kg oral 18 days

Q: Which results are given for `COC1C(O)C(O)C(O)C(O)C1O` (stereo not shown) [Sequoyitol, 5-O-methyl-myo-inositol]?
A: main organs under macroscopic observation [1]: free of abnormality; hyalinization of interstitial small vessels (histopathologic examination) [2, 6]: alleviated; inflammatory cell infiltration (histopathologic examination) [2, 6]: reduced; body weight of diabetes rats compared to the control group ([2]; 50 and 100 mg/kg Sequoyitol groups, oral, since the 15th day (increased at the 13th day)): significantly increased; serum insulin level increased compared to the control group ([2]; Sequoyitol 25 mg/kg oral 18 days): 1.01 μlU/ml; alloxan-induced hyperglycemia compared to the control group ([2]; Sequoyitol 25 mg/kg oral, 12th day): significantly alleviated; blood-sugar level decreased compared to the control group ([2]; Sequoyitol 25 mg/kg oral, 18th day): 194.4 mg/dL; body weight of diabetes rats compared to the control group ([2]; Sequoyitol 25 mg/kg oral, at the 17th day (increased at the 15th day)): significantly increased; content of cholesterol in serum decreased compared to the control group [2, 7]: 22.2 mg/dL; content of triglyceride in serum decreased compared to the control group [2, 7]: 15.7 mg/dL; serum insulin level increased compared to the control group [2, 7]: 1.45 μl U/ml; blood-sugar level decreased compared to the control group ([2]; Sequoyitol 50 mg/kg oral, 6th day): 129.1 mg/dL; blood-sugar level decreased compared to the control group ([2]; Sequoyitol 50 mg/kg oral, 12th day): 200.7 mg/dL; blood-sugar level decreased compared to the control group ([2]; Sequoyitol 50 mg/kg oral, 18th day): 223.1 mg/dL; activity of hepatocuprein in liver tissue increased compared to the control group [2, 8]: 18.3 NU/mg prot; activity of hepatocuprein in serum increased compared to the control group [2, 8]: 55.0 NU/ml; content of malonaldehyde in liver tissue decreased compared to the control group [2, 8]: 4.29 nmol/mg prot; content of malonaldehyde in serum decreased compared to the control group [2, 8]: 4.13 nmol/dL; serum insulin level increased compared to the control group [2, 8]: 3.36 μlU/ml; blood-sugar level decreased compared to the control group ([2]; Sequoyitol 100 mg/kg oral, 6th day): 120 mg/dL; blood-sugar level decreased compared to the control group ([2]; Sequoyitol 100 mg/kg oral, 12th day): 218.2 mg/dL; blood-sugar level decreased compared to the control group ([2]; Sequoyitol 100 mg/kg oral, 18th day): 240.3 mg/dL; number of pancreatic islands and number of cells in pancreatic islands (histopathologic examination) compared to the model group ([2]; Sequoyitol groups (25, 50, 100 mg/kg oral 18 days)): increased significantly; alloxan-induced hyperglycemia compared to the control group ([3]; Sequoyitol 25 mg/kg p.o. 7 days): alleviated; blood-sugar level decreased compared to the control group ([3]; Sequoyitol 50 mg/kg p.o. 7 days): 195.2 mg/dL; blood-sugar level decreased compared to the control group ([3]; Sequoyitol 100 mg/kg p.o. 7 days): 306.8 mg/dL; number of pancreatic islands and number of islet cells (histopathologic examination) compared to the model group ([3]; Sequoyitol groups (25, 50, 100 mg/kg p.o. 7 days)): increased significantly; effect on Pentobarbital hours of sleep of mice [4]: did not significantly affect; effect on spontaneous movement of mice [4]: did not significantly affect; effect of alleviating hyperglycemia compared with phenformine ([5]; 60 mg/kg Sequoyitol vs 75 mg/kg phenformine): higher than that of 75 mg/kg phenformine; blood-sugar level decreased compared to the control group ([5]; 1 hour after last administration): 100.0 mg/dL; blood-sugar level decreased compared to the control group ([5]; 2 hours after last administration): 140.7 mg/dL; blood-sugar level decreased compared to the control group ([5]; 3 hours after last administration): 193.9 mg/dL; blood-sugar level decreased compared to the control group ([5]; 5 hours after last administration): 174.6 mg/dL
